Measurements as given in ChEMBL document CHEMBL1131653, “Syntheses of D- and L-myo-inositol 1,2,4,5-tetrakisphosphate and stereoselectivity of the I(1,4,5)P3 receptor binding” (Bioorg Med Chem Lett, 1998).

Biological target: Inositol 1,4,5-trisphosphate-gated calcium channel ITPR3 (Bos taurus, UniProt Q8WN95)
Assay: Binding affinity towards Inositol 1,4,5-trisphosphate receptor was evaluated by the standard competitive binding assay using 1.25 nM [3H]D-I(1,4,5)P3 binding protein, prepared from bovine adrenal cortex
Assay type: tissue-based

Chain of Inositol 1,4,5-trisphosphate-gated calcium channel ITPR3 (Q8WN95 whole entry): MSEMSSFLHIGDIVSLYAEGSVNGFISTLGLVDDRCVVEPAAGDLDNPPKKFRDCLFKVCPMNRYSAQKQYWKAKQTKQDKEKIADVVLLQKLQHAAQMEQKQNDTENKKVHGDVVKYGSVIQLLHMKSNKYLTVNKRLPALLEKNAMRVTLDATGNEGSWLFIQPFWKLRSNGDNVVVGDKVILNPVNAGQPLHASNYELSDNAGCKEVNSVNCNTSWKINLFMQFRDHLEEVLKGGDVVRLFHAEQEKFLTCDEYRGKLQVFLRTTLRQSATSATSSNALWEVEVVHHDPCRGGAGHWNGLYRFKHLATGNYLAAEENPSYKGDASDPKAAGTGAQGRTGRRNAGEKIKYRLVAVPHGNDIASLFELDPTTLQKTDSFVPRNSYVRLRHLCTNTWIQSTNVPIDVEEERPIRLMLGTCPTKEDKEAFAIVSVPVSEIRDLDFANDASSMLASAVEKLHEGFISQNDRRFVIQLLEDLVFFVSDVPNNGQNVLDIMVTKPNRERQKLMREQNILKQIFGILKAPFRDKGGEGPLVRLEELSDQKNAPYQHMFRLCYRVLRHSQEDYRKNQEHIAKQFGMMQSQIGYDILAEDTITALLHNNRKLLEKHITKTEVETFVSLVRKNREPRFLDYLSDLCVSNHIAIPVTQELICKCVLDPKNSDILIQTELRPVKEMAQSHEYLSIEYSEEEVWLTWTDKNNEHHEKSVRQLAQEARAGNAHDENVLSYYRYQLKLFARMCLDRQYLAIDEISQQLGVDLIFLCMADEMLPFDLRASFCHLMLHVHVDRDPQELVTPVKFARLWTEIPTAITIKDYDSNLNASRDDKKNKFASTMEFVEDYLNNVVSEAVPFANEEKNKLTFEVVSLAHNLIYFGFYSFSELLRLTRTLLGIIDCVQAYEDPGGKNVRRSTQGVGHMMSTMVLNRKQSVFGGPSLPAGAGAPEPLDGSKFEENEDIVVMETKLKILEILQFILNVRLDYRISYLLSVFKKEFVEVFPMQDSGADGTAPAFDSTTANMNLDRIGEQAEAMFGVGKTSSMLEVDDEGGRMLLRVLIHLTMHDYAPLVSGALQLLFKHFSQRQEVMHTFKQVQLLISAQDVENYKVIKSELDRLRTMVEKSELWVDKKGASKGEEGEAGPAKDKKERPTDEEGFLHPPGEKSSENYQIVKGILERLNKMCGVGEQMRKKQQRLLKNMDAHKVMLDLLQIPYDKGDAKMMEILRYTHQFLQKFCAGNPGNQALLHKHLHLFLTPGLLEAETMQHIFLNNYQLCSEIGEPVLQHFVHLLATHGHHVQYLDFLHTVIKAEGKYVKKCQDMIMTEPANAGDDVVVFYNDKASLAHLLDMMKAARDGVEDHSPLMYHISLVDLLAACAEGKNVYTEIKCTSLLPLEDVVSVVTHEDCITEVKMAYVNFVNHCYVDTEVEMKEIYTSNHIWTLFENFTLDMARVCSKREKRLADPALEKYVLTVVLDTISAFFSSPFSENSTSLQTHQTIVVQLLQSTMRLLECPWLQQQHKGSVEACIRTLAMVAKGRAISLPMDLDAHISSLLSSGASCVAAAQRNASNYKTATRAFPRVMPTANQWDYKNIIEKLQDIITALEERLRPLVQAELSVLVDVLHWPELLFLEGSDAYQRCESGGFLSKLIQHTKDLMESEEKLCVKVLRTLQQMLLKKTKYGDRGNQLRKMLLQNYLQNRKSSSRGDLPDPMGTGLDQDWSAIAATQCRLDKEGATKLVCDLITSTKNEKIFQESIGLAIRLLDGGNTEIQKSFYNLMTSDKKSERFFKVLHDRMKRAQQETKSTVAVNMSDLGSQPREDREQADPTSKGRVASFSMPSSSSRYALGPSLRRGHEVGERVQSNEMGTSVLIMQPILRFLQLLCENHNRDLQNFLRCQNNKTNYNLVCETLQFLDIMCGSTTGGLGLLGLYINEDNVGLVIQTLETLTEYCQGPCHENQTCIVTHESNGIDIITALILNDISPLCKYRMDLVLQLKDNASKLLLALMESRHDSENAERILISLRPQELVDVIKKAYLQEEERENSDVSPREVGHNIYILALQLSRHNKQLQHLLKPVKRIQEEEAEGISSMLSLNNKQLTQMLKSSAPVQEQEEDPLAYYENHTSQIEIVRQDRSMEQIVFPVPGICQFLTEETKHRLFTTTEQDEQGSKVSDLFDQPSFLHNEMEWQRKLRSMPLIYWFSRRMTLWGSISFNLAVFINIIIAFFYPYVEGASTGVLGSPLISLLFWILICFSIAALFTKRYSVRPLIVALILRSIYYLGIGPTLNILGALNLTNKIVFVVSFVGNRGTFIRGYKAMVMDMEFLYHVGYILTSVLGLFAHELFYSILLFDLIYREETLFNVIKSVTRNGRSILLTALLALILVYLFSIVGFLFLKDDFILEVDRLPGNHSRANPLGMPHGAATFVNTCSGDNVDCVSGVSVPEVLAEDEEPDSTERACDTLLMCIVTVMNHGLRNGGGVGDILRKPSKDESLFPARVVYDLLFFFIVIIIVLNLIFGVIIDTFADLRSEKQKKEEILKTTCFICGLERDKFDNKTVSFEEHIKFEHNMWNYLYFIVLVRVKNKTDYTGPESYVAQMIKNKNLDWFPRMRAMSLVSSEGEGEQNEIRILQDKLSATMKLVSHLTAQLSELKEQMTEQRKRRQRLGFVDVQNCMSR

O=P(O)(O)O[C@@H]1[C@@H](O)[C@H](OP(=O)(O)O)[C@@H](OP(=O)(O)O)[C@H](O)[C@@H]1OP(=O)(O)O
IC50: 598 nM

O=P(O)(O)O[C@@H]1[C@@H](O)[C@@H](OP(=O)(O)O)[C@@H](OP(=O)(O)O)[C@H](O)[C@H]1OP(=O)(O)O
IC50: 13.4 nM
